This is an account of results in US11865114B2, “Method for treating diseases using SMARCA2/4 degraders” (Aurigene Discovery Technologies Limited, priority 2019, dated 2024).

SMILES strings stand for the structures. A value given as a limit tells only on which side of the number the result lay.

Format in all cases: cell-based
Experiment [1] relates to DU-145 (ATCC HTB-81) cells. Description: Anti-proliferative activity by Cell Titer Glo assay in DU145 cells. The method, then:
(§1) Determination of Anti-Proliferative Activity of SMARCA2/4 Degrader in Cells by Cell Titer Glo® (Promega) Assay
(§2) The prostate cancer cell lines, Vcap (ATCC #CRL-2876), LNCaP-FGC (ATCC CRL-1740), 22RV1 (ATCC CRL-2505), PC-3 (ATCC CRL-1435), DU-145 (ATCC HTB-81) and RWPE-1 (ATCC CRL-11609) were seeded in 96 well plate flat black clear bottom plates (Corning, Cat. No 3904) using respective complete media. Simultaneously cells were seeded for day 0 measurement.
(§3) On the following day, compound 43 of the present invention was added to cells from 10 mM stocks made in DMSO (Sigma Cat no. D2650). DMSO alone was used a vehicle control. Day 0 plate was terminated on day of compound addition using 50 μl of Cell Titer Glo® reagent (Promega, Cat. no G7572). Compound was incubated for 8 days, except for 22RV1 which was incubated for 6 days. Media was replenished with fresh compound on day 4. After the compound incubation, assay was terminated using 50 μl of CellTiter Glo® reagent. CellTiter Glo® Luminescent reagent determines the number of viable cells based on quantitation of ATP present which is an indicator of cell number and metabolic activity. Luminescence readings were taken in fluorescent plate reader.
(§4) Day 0 CTG measurement is designated as time zero (Tz), final CTG measurement in Vehicle control is designated as control growth DMSO (C) and test growth in the presence of drug at the nine concentration levels is designated as (Ti).
(§5) Using the measurements [time zero (Tz), growth control DMSO (C) and test growth in the presence of drug at the nine concentration levels (Ti)] the percentage growth is calculated at each of the drug concentration levels. Percentage response is calculated as: [(Ti−Tz)/(C−Tz)]×100 for Concentrations for which Ti≥Tz [(Ti−Tz)/Tz]×100 for Concentrations for which Ti<Tz
(§6) Three dose response parameters are calculated for each experimental agent. […]
(§7) Compound 43 of the present invention was analyzed against several cell lines representing normal and prostate cancer cells. […]

For experiment [2], the system named is 22RV1 (ATCC CRL-2505) cells. Description: Anti-proliferative activity by Cell Titer Glo assay in 22RV1 cells. On the procedure: as §1, §2, §3, §4, §5, §6, §7
For experiment [3], the system named is LNCaP-FGC (ATCC CRL-1740) cells. Description: Anti-proliferative activity by Cell Titer Glo assay in LNCaP-FGC cells. The method, then:
as §1, §2, §3, §4, §5
(§8) Three dose response parameters are calculated for each experimental agent. Growth inhibition of 50% (GI50) is calculated from [(Ti−Tz)/(C−Tz)]×100=50, which is the drug concentration resulting in a 50% reduction in the net luminescence increase (measured ATP) in control cells during the drug incubation.
(§9) The LC50 (concentration of drug resulting in a 50% reduction in the measured ATP at the end of the drug treatment as compared to that at the beginning) indicating a net loss of cells following treatment is calculated from [(Ti−Tz)/Tz]×100=−50.
(§10) Compound 43 of the present invention was analyzed against several cell lines representing normal and prostate cancer cells. The cell lines used in the present invention are harboring one or more tumor specific alterations such as presence of AR, PTEN mutations or TMPRSS2-ERG fusion which are presented below.
On the technique in general: Cellular ATP, detected with luciferase, serves as a proxy for viable cell number.

Experiment [4] has as its system RWPE-1 (ATCC CRL-11609) cells. Description: Anti-proliferative activity by Cell Titer Glo assay in RWPE normal cells. On the procedure: as §1, §2, §3, §4, §5, §6, §7
In experiment [5] the test system is Vcap (ATCC #CRL-2876) cells. Description: Anti-proliferative activity by Cell Titer Glo assay in VCap cells. On the procedure: as §1, §2, §3, §4, §5, §8, §9, §10
The subject of experiment [6] is PC-3 (ATCC CRL-1435) cells. As to the kind of experiment: Anti-proliferative activity by Cell Titer Glo assay in PC3 cells. On the procedure:
as §1, §2, §3, §4, §5, §8, §9, §10

Broadly, the GI50 is the concentration giving 50% growth inhibition. Turning to `Cc1ncsc1-c1ccc([C@H](C)NC(=O)[C@@H]2C[C@@H](O)CN2C(=O)[C@@H](NC(=O)CN2CCN(c3cc(-c4ccccc4O)nnc3N)CC2)C(C)(C)C)cc1` [Compound 43], the “Inhibition of cell growth and cell killing (in words)” value in experiment [1] (DU145, none of the tumor specific alterations, FIG. 2) was “neither inhibition of cell growth nor cell killing was observed”; in experiment [2] (22RV1, one tumor-specific alteration, FIG. 3A), “potently inhibited with no or moderate cell killing”; in experiment [3] (LnCapFGC, two tumor specific alterations, FIG. 4B), “both growth and cell killing were potently impacted”; in experiment [4] (normal cell (RWPE), FIG. 1) it was “did not show any inhibition and cell killing”; in experiment [5] (VCap, two tumor specific alterations, FIG. 4A), “both growth and cell killing were potently impacted”; in experiment [6] (PC3, one tumor-specific alteration, FIG. 3B), “potently inhibited with no or moderate cell killing”. In addition, the Observed cell killing result is reported as “No” in experiment [1] (DU145 cells, 8 days incubation); “No” in experiment [2] (22RV1 cells, 6 days incubation); “Yes” in experiment [3] (LnCapFGC cells, 8 days incubation); “No” in experiment [4] (RWPE (Normal) cells, 8 days incubation); “Yes” in experiment [5] (VCap cells, 8 days incubation); “Yes” in experiment [6] (PC3 cells, 8 days incubation). The GI50 in experiment [1] (Homo sapiens, DU-145, 192 h, DU145 cells, none of the tumor-specific alterations, 8 days incubation) was above 10000 nM; in experiment [2] (Homo sapiens, 144 h, 22RV1 cells, AR dependence +, 6 days incubation) it was 14 nM; in experiment [3] (192 h, LnCapFGC cells, AR dependence +, PTEN mutation +, 8 days incubation), 5 nM; in experiment [4] (Homo sapiens, RWPE-1, 192 h, RWPE (Normal) cells, normal AR, no PTEN mutation, no TMPRSS2-ERG fusion, 8 days incubation), 260 nM; in experiment [5] (Homo sapiens, 192 h, VCap cells, AR dependence +, TMPRSS2-ERG fusion +, 8 days incubation), 3 nM; in experiment [6] (Homo sapiens, PC-3, 192 h, PC3 cells, PTEN mutation +, 8 days incubation), 51 nM. For the same molecule, the CC50 in experiment [3] (LnCapFGC cells, 50% reduction in measured ATP versus day 0, 8 days incubation, read-out: LC50 (the source's name)) worked out at 22 nM; in experiment [5] (Homo sapiens, VCap cells, 50% reduction in measured ATP versus day 0, 8 days incubation, read-out: LC50 (the source's name)), 11 nM; in experiment [6] (Homo sapiens, PC-3, PC3 cells, 50% reduction in measured ATP versus day 0, 8 days incubation, read-out: LC50 (the source's name)) it was 3410 nM.
